According to patent US11083723B2, “Use of roluperidone to treat negative symptoms and disorders, increase neuroplasticity, and promote neuroprotection” (Minerva Neurosciences, Inc., priority 2018, dated 2021):
Structures can show the parent of a compound that is named as a salt.

Columns and labels:
[1] = test system: BDNF release by primary rat astrocytes; test: BDNF release by primary rat astrocytes, in situ ELISA; type: cell-based; conditions: 5 days incubation
Experimental: At confluency, astrocytes were plated in 96-well Nunc MaxiSorp surface polystyrene flat-bottom immunoplate precoated with poly-D-lysine during 30 min. and an anti-BDNF monoclonal antibody overnight at 4° C. at a density of 30,000 cells/well. […] At the end of drug treatment, cells were carefully washed with TBST (20 mM Tris-HCl (pH 7.6), 150 mM NaCl, and 0.05% (vol/vol) Tween 20). The plate was then incubated with the polyclonal anti-human BDNF antibody overnight and BDNF quantified. Experimental Protocol-In Situ ELISA on Primary Astrocytes Rat Primary Culture of Astrocytes Rat mixed glial cells were cultured as described by McCarthy et al. Primary rat glial cells were prepared from the cortical of newborn Wistar rats (1 day). […] Medium was changed 3 times per week. At confluency, astrocytes were plated in 96-well Nunc MaxiSorp surface polystyrene flat-bottom immunoplate precoated with poly-D-lysine during 30 min (Sigma, Ref: […], batch: SLBS8705) and an anti-BDNF monoclonal antibody overnight at 4° C. at a density of 30,000 cells/well. (Balkowiec and Katz “Cellular Mechanisms Regulating Activity-Dependent Release of Native Brain-Derived Neurotrophic Factor from Hippocampal Neurons” J. […] At the end of drug treatment, cells were carefully washed with TBST (20 mM Tris-HCl (pH 7.6), 150 mM NaCl, and 0.05% (vol/vol) Tween 20). The plate was then incubated with the polyclonal anti-human BDNF antibody overnight. The amount of specifically bound polyclonal antibody, which when exposed to chromogenic substrate (TMB reagent; Promega), changes color in proportion to the amount of BDNF present in the sample. The color intensity was quantified by measuring the absorbance at 450 nm. BDNF standards, ranging in concentration from 0 to 500 pg/mL were added in parallel wells in the same medium than hippocampal neurons.

[2] = test system: BDNF expression by astrocytes; test: BDNF expression by astrocytes, qPCR; type: cell-based, rat; conditions: for BDNF expression astrocytes, % increase of control conditions: 5 days incubation; for BDNF expression by astrocytes, fold change (Fc) compared to control condition: 5 days
Experimental: For analysis of BDNF expression by real-time quantitative polymerase chain reaction (qPCR), astrocytes were seeded in 24 well-plates pre-coated with poly-D-lysine. After 1 day of culture, fresh serum free medium containing compounds was added during 5 days at 37° C. At the end of the incubation time total RNA content were extracted and reverse transcription was performed. Expression levels were calculated using the ΔCt method where the expression level of the mRNA of interest is given by 2-ΔCT with ΔCT=CT target mRNA−CT reference mRNA (Gapdh), in the same sample.
Rat Primary Culture of Astrocytes—rat mixed glial cells were cultured as described by McCarthy et al., 1980. Primary rat glial cells were prepared from the cortical of newborn Wistar rats (1 day). Briefly, meninges and blood vessels of the mice cortex were removed and placed in ice-cold medium of Leibovitz (L15; PanBiotech, ref P04-27055, batch 4511117) containing 2% of Penicillin-Streptomycin (PS; PanBiotech, ref P06-07100, batch 2110917) and 1% of bovine serum albumin (BSA; PanBiotech, ref P06-1391100, batch H171006). Tissues were dissociated with 0.25% trypsin-EDTA (PanBiotech, ref P10-023100, batch 8970318) at 37° C. for 10 min. Cells were then submitted to a supplementary incubation of 15 min at 37° C. in presence of deoxyribonuclease I (0.1 mg/ml Panbiotech, ref: P60-37780100, batch: H170706). Cells were then pelleted (5 min at 1200 rpm) and trypsinization was stopped by adding DMEM (Panbiotech, Ref P04-03600, Batch 5181217) supplemented with 10% FCS (Fischer, Ref 10270106, batch 42G2068K), 1 mM of Na/pyruvate (PanBiotech, ref: P04-43100, batch: 3470914) and 2% PS. Cells suspension was mechanically dissociated and filtered through 40 μm diameter nylon meshes (BD Falcon, Ref: 352340). The cells were collected by centrifugation at 1200 rpm/min for 10 min, re-suspended in culture medium and then plated in culture flasks (Dutscher, ref: 690175). Cells were seeded at a density of 1.25×10^5 cells/cm^2 and cultured in 5% CO2 at 37° C. Medium was changed three times per week.
Analysis of BDNF expression by real-time quantitative polymerase chain reaction (PCR): astrocytes were seeded in 24 well-plates pre-coated with poly-D-lysine (Sigma, ref P7886, batch: SLBQ9797V). After 1 day of culture, fresh serum free medium containing compounds was added during 5 days at 37° C. At the end of the incubation time, medium was removed and total RNA content were extracted using kit nucleo spin RNS XS (Macherey Nagel; 20 μL/well). 6 wells/condition were done. RNA concentration was determined using a Nanodrop 2000 spectrophotometer (Life Technologies ThermoFisher Scientific, Villebon sur Yvette, France).
Reverse transcription was performed on 500 ng of RNA using the high capacity RNA-to-cDNA mix (Applied Biotechnologies). qPCR was performed on 12.5 ng of cDNA using the following primers, purchased from Applied Biotechnology.
For qPCR reactions, the kit TaqMan™ Fast Universal PCR Master Mix (2×) was used. The following volumes were used: mix: 10 uL, enzyme: 4 uL, oligo: 1 uL each, cDNA: 5 uL (12,5 ng). For the comparisons between various compounds and concentrations, expression levels were calculated using the ΔCt method where the expression level of the mRNA of interest is given by 2-ΔCT with ΔCT=CT target mRNA−CT reference mRNA (Gapdh), in the same sample. For the cultures treated with GA or the unknown compound, relative expression levels were determined according to the ΔΔCt method where the expression level of the mRNA of interest is given by 2-ΔΔCT where ΔΔCT=ΔCt for treated cultures−ΔCt for untreated cultures.

5-HT2A receptors = 5-HT2A receptors (Homo sapiens, UniProt P28223); test: Molecular binding profile, 5-HT2A
[3] = molecular target: alpha1-adrenergic receptors; test: Molecular binding profile, alpha1-adrenergic
dopaminergic receptors = test: Receptor affinity, dopaminergic; type: binding
cholinergic receptors = test: Receptor affinity, cholinergic; type: binding
histaminergic receptors = test: Receptor affinity, histaminergic; type: binding
QT prolongation = conditions: patients treated with Compound (I); related to plasma levels of Compound (I) and metabolite BFB-520; cited from earlier work

Chain of 5-HT2A receptors (P28223 whole entry): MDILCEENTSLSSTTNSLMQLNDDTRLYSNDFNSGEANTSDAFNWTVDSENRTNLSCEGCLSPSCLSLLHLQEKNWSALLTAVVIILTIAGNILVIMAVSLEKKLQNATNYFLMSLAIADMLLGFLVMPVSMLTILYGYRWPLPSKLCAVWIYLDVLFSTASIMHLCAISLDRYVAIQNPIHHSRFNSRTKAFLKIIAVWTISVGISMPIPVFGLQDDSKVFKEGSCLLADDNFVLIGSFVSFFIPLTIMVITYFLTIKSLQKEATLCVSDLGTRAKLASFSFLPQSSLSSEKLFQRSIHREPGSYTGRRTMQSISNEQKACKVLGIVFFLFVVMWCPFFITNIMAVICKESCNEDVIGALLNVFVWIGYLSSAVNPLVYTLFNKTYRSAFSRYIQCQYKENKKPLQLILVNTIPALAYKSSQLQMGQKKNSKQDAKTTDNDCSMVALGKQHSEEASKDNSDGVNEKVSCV

O=C(CN1CCC(CN2Cc3ccccc3C2=O)CC1)c1ccc(F)cc1 [Compound (I), 1H-Isoindol-1-one, 2-[[1-[2-(4-Fluorophenyl)-2-oxoethyl]-4-piperidinyl]methyl]-2,3-dihydro-, hydrochloride, hydrate (1:1:2)]
BDNF release astrocytes, % increase of control conditions ([1]; 3 nM): 6.8%
BDNF release astrocytes, % increase of control conditions ([1]; 10 nM): 16.2%
BDNF release astrocytes, % increase of control conditions ([1]; 30 nM): 17.1%
BDNF release astrocytes, % increase of control conditions ([1]; 100 nM): 18.9%
BDNF release astrocytes, % increase of control conditions ([1]; 300 nM): 29.5%
BDNF release astrocytes, % increase of control conditions ([1]; 1 μM): 16.9%
BDNF expression astrocytes, % increase of control conditions ([2]; 0.3 nM): 26%
BDNF expression astrocytes, % increase of control conditions ([2]; 1 nM): 55%
BDNF expression by astrocytes, fold change (Fc) compared to control condition ([2]; 1 nM, p<0.05): 1.55
BDNF expression astrocytes, % increase of control conditions ([2]; 3 nM): 81%
BDNF expression by astrocytes, fold change (Fc) compared to control condition ([2]; 3 nM, p<0.001): 1.81
BDNF expression astrocytes, % increase of control conditions ([2]; 10 nM): 71%
BDNF expression by astrocytes, fold change (Fc) compared to control condition ([2]; 10 nM, p<0.01): 1.71
BDNF expression astrocytes, % increase of control conditions ([2]; 30 nM): 31%
BDNF expression astrocytes, % increase of control conditions ([2]; 100 nM): 5%
Ki (5-HT2A receptors): 7.5 nM
Ki [3]: 14.4 nM
affinity for dopaminergic receptors (dopaminergic receptors): no affinity
affinity for cholinergic receptors (cholinergic receptors): no affinity
affinity for histaminergic receptors (histaminergic receptors): no affinity
QT prolongation in patients (QT prolongation): QT prolongation in patients treated with Compound (I) has been observed
